The source of these data is patent US9295714B2, “Apparatus and method for transdermal delivery of parathyroid hormone agents” (Alza Corporation, priority 2004, dated 2016).

Structures are written as SMILES.

One data set can be described thus: Solubility in water. In kind it is physicochemical. The conditions noted are these: at pH 5. From the text: Referring now to FIG. 10, there is shown a superposition of the mole ratios for acetic acid and the neutral form of hPTH (1-34). […] At pH 5, negligible amounts of PTH are present as PTH zero net charge (PTH 0). The PTH is also highly soluble in water at concentrations in excess of 20%. During drying and subsequent storage, the free acetic acid will evaporate inherently resulting in formation of the water insoluble PTH 0. Subsequent reconstitution in water will not allow total solubilization of PTH. Accordingly, the use of a low volatility counterion provides a solid soluble formulation of PTH as long as the pH is maintained at least 2.5 pH units, preferably 3 pH units, below the pI of PTH. Preferably, this can be achieved by providing at least about two low volatility counterions to each molecule of PTH.

In the next data set the test system is urinary cAMP. As to the kind of experiment: Urinary cAMP excretion after subcutaneous vs transdermal delivery. Type of data set: in vivo, human. The method, then: (§1) In this example, transdermal delivery of a PTH-based agent using a coated microprojection member was compared to conventional, subcutaneous delivery of teriparatide PTH (Forteo™). A dose-finding study was conducted with […], young females that received two treatments, separated by at least five days, according to randomly assigned sequence of 20 μg subcutaneous delivery of Forteo™ and 30 μg transdermal delivery of a PTH-based agent by coated microprojection. Bioavailability of transdermally delivered PTH was determined in 20 healthy, young females by administering two treatments, separated by at least five day, according to randomly assigned sequence of 40 μg subcutaneous delivery of Forteo™ and 30 μg transdermal delivery of a PTH-based agent by coated microprojection.
FIG. 12 further reflects a preferred pulsatile concentration profile of the PTH agent, i.e., rapid on-set and rapid off-set after reaching Cmax.

The nature of data set [1]: Plasma PTH after subcutaneous Forteo vs coated microprojection transdermal delivery. In kind it is in vivo, human. The method, then:
as §1
In the dose-finding study, two participants dropped out, eleven subjects participated and eight generated usable data. It was determined that three subjects had measurable PTH plasma levels following subcutaneous injection and eight subjects had measurable PTH plasma levels following transdermal delivery.

A short description of data set [2]: Pharmacokinetics of hPTH (1-34) after IV, SC and coated microprojection array administration. Type of data set: in vivo, hairless guinea pig. Particulars: for dose absorbed/delivered: AUC relative to IV.

For `CC[C@H](C)[C@H](NC(=O)[C@H](CCC(=O)O)NC(=O)[C@H](CO)NC(=O)[C@@H](NC(=O)[C@@H](N)CO)C(C)C)C(=O)N[C@@H](CCC(N)=O)C(=O)N[C@@H](CC(C)C)C(=O)N[C@@H](CCSC)C(=O)N[C@@H](Cc1cnc[nH]1)C(=O)N[C@@H](CC(N)=O)C(=O)N[C@@H](CC(C)C)C(=O)NCC(=O)N[C@@H](CCCCN)C(=O)N[C@@H](Cc1cnc[nH]1)C(=O)N[C@@H](CC(C)C)C(=O)N[C@@H](CC(N)=O)C(=O)N[C@@H](CO)C(=O)N[C@@H](CCSC)C(=O)N[C@@H](CCC(=O)O)C(=O)N[C@@H](CCCN=C(N)N)C(=O)N[C@H](C(=O)N[C@@H](CCC(=O)O)C(=O)N[C@@H](Cc1c[nH]c2ccccc12)C(=O)N[C@@H](CC(C)C)C(=O)N[C@@H](CCCN=C(N)N)C(=O)N[C@@H](CCCCN)C(=O)N[C@@H](CCCCN)C(=O)N[C@@H](CC(C)C)C(=O)N[C@@H](CCC(N)=O)C(=O)N[C@@H](CC(=O)O)C(=O)N[C@H](C(=O)N[C@@H](Cc1cnc[nH]1)C(=O)N[C@@H](CC(N)=O)C(=O)N[C@@H](Cc1ccccc1)C(=O)O)C(C)C)C(C)C` [hPTH (1-34)], the “solubility in water (concentration)” value in the data set “Solubility in water” was > 20%. Besides, the “biological activity as evidenced by urinary cAMP excretion” value in the data set with urinary cAMP is “comparable to that following subcutaneous delivery”. The “subjects with measurable PTH plasma levels” value in data set [1] (bioavailability study, subcutaneous delivery (Forteo 40 μg), 20 subjects completed) was 15 subjects; in data set [1] (bioavailability study, transdermal delivery 30 μg, 20 subjects completed), 20 subjects; in data set [1] (dose-finding study, subcutaneous injection (Forteo 20 μg), eight with usable data), “three”; in data set [1] (dose-finding study, transdermal delivery 30 μg, eight with usable data) it was “eight”. The “Fraction dose absorbed/delivered (%)” value in data set [2] (IV, 22.5 μg, hairless guinea pig) was 100%. In addition, the dose absorbed/delivered is 8.2 ± 2.9 µg in data set [2] (SC, 19.5 μg) and 6.6 ± 1.8 µg in data set [2] (microprojection array, 40.0 μg).
